From ChEMBL document CHEMBL5344435 (J Med Chem, 2024) come the findings set out here.

The structures appear in SMILES notation.

A short description of the series: in vivo. To be noted: C57BL/6J, mouse, po, 10 mg/kg.

The term Cmax denotes the maximum level reached in the sampled fluid or tissue.

The molecule `[O-][n+]1cc(O)cc(CCCc2ccc(Cl)c(C(F)(F)F)c2)c1` showed a maximum concentration (Cmax) at 24 h of 102 ng/mL.
